From patent publication US20040122209A1, “Products for regulating the degradation of collagen and methods for identifying same” (Shriners Hospital For Children, priority 2002, published 2004)

Experiments:
Type in all cases: cell-based
[1] = test system: normal human adult articular cartilage explants; assay: Proteoglycan release and content (DMMB dye assay) in human explant culture
Procedure: Cumulative proteoglycan (mainly aggrecan) released into medium was calculated by summation of proteoglycan contents in medium at each medium change of every four days. Cartilage explants were maintained for up to 16 days cultured with or without CB12-II at 10 μM. Sulfated glycosaminoglycan in medium was assayed by dimethylmethylene blue (DMMB) method. Data are expressed as μg GAG release per wet weight of cartilage.
The cartilages were prepared as previously described (Dahlberg, L. et al. (2000) supra. In brief, the cartilage samples were washed three times with basal culture medium containing Dulbecco's modified Eagle's medium (DMEM; Gibco BRL, Life Technologies, Grand Island, N.Y.) with 20 mM HEAPS buffer (pH 7.4) (Gibco BRL), 45 mM NaHCO3, 100 units/ml penicillin, 100 μg/ml streptomycin and 150 μg/ml gentamycin sulphate (Medium A). Full-depth cartilage slices from a single area, around 20 mm×20 mm were cut vertical to the articular surface and then into cubes of approximately 2 mm×2 mm (5-7 cubes were randomly obtained and wet weights about 50-70 mg/well determined).
The cartilage was assigned to 48 well plate (ca 40 mg/well) and kept in Medium A supplemented with 50 μg/ml ascorbic acid, 0.1 mg/bovine serum albumin, 50 μg/ml insulin, 5.0 μg/ml and 5.0 μg/ml sodium DMEM alone at 37° C. in 95% air/5% CO2. The cartilage was precultured for 2 days and medium was changed at day 0. […]
In order to show the specificity of the peptide fragments of one embodiment on degradation of type II collagen as compared with proteoglycan, primarily aggrecan, sulphated glycosaminoglycan (GAG) content was determined in both the α-chymotrypsin and proteinase K digests for total proteoglycan (predominantly aggrecan) content in cell pellets, cartilage explants and also in conditioned media. […]
In order to examine any effects of SP on proteoglycan catabolism in normal human articular cartilage, cumulative proteoglycan (mainly aggrecan) release into medium and proteoglycan content in cartilage were determined by DMMB (1,9-dimethylmethyleneblue) dye assay.

MMP-13 = assay: ELISA for MMP-13 in conditioned medium of human chondrocytes; settings: 48 hours; CB12-II 50 μM, TNF-α 50 ng/ml
Procedure: First-passaged normal human chondrocytes isolated by the method described above and cultured at high density (2×10^5 cells/cm^2) were trypsinized and resuspended in Medium A containing 1% FCS at a density of 10^6 cells/ml. Then, 200 μl of the cell suspension was each plated onto round-bottomed 96-well culture plate. On the next day after plating, CB12-II at 50 μM, USP at 50 μM, and TNF-α at 50 ng/ml were added to the culture media, and the culture was maintained for 24-48 hours. Conditioned media were collected and subjected to ELISA assay. The ELISA kits (BIOTRAK) for MMP-1 and MMP-13 were purchased from Amersham Pharmacia Biotech (Piscataway, N.J.). Measurement range was 6.25-100 ng/ml for MMP-1 and 0.094-3 ng/ml for MMP-13. Sensitivity for the assay was 1.7 ng/ml for MMP-1 and 0.7 ng/ml for MMP-13.
Protein levels of MMP-1 and MMP-13 were also tested by incubating isolated human chondrocytes for 48 hours in high density culture (10^6 cells/ml) with CB12-II, negative control peptide USP, or cytokine TNF-α, as discussed above. MMP-1 and MMP-13 secretion into medium from the cells was measured using ELISA (see FIGS. 9A and 9B).

[2] = test system: bovine articular cartilage explant; assay: Proteoglycan (GAG) content and release in bovine explant culture; settings: subpeptides at 1 and 10 μM
Procedure: The cartilages were prepared as previously described (Dahlberg, L. et al. (2000) supra. In brief, the cartilage samples were washed three times with basal culture medium containing Dulbecco's modified Eagle's medium (DMEM; Gibco BRL, Life Technologies, Grand Island, N.Y.) with 20 mM HEAPS buffer (pH 7.4) (Gibco BRL), 45 mM NaHCO3, 100 units/ml penicillin, 100 μg/ml streptomycin and 150 μg/ml gentamycin sulphate (Medium A). Full-depth cartilage slices from a single area, around 20 mm×20 mm were cut vertical to the articular surface and then into cubes of approximately 2 mm×2 mm (5-7 cubes were randomly obtained and wet weights about 50-70 mg/well determined). The cartilage was assigned to 48 well plate (ca 40 mg/well) and kept in Medium A supplemented with 50 μg/ml ascorbic acid, 0.1 mg/bovine serum albumin, 50 μg/ml insulin, 5.0 μg/ml and 5.0 μg/ml sodium DMEM alone at 37° C. in 95% air/5% CO2. The cartilage was precultured for 2 days and medium was changed at day 0. Thereafter medium (as described in pellet cultures) was replaced every four days. Various CNBr fragments and/or synthetic peptides were freshly added from day 0 at each medium change. Thereafter, cartilage explants and conditioned media were harvested and stored at −20° C. In order to show the specificity of the peptide fragments of one embodiment on degradation of type II collagen as compared with proteoglycan, primarily aggrecan, sulphated glycosaminoglycan (GAG) content was determined in both the α-chymotrypsin and proteinase K digests for total proteoglycan (predominantly aggrecan) content in cell pellets, cartilage explants and also in conditioned media. Measurement of release of proteoglycan into media was tested using dimethylene blue dye binding as previously described (Dahlberg, L. et al. (2000) supra).

With ERGPPGPQGARGFPGTPGLPGVK [CB12-II] the “cumulative proteoglycan release, SP-treated versus control specimens” value ([1]; 10 μM, up to 16 days) was “no significant difference”, the “proteoglycan release into medium” value ([1]; 10 μM, up to 16 days) was “did not induce proteoglycan release” and the “proteoglycan content in cartilage explants” value ([1]; data not shown) was “nor did it decrease proteoglycan content”. For the same sequence, the “MMP-13 secretion into medium versus no peptide and negative control peptide (USP)” value (MMP-13) was “significantly higher” and the proteoglycan breakdown [2] was “no significant effect”.
